Reference: patent US9408393B2, “Bismuth-thiols as antiseptics for agricultural, industrial and other uses” (Microbion Corporation, priority 2010, dated 2016)
Converted amounts (≈) assume the structure as drawn.

How the values were obtained:
S. aureus = assay: Contaminated open fracture, rat femur critical defect model; format: in vivo; settings: BT gel 5 mg/ml, 1 ml in defect, with Cefazolin 5 mgKg^−1 s.c. twice daily 3 days, day 14
Description: Standard errors of the mean are shown as error bars. Animals euthanized early are not excluded from the analysis, however samples from one animal in group 2 have been excluded due to gross contamination.
The aim of this study was to determine whether BTs will reduce infection in a contaminated open fracture model either on their own or with antibiotics. The contaminated rat femur critical defect model is a well-accepted model and was used for the experiments described in this Example. This model offers a standardized model for comparing various possible treatments and their effects on reducing infection and/or improving healing.
Three formulations of microparticulate BTs were produced in a clinically useful hydrogel gel form as described herein.
Two treatment arms were used: in the first arm, BT was used singularly; in the second arm BT was used in conjunction with a systemic antibiotic (ABx).
Six hours after inoculation with S. aureus, the wound was debrided, irrigated with saline and 1 ml of BT gel inserted within the defect.
Six hours after inoculation with S. aureus, the wound was debrided, irrigated with saline and 1 ml of BT gel added inserted within the defect. The antibiotic used was Cefazolin at a dose equivalent to 5 mgKg^−1 delivered via sub-cutaneous injection twice daily for a total of 3-days following the injury. The first dose was administered immediately prior to debridement.
Six hours after inoculation with S. aureus, the wound was debrided and irrigated with saline. The control animals were also treated with Cefazolin as per the regime described above.
The procedure for the in vivo rat injury model was performed as described by Chen et al. (2002 J. Orthop. Res. 20:142; 2005 J. Orthop. Res. 23:816; 2006 J. Bone Joint Surg. Am. 88:1510; 2007 J. Orthop. Trauma 21:693). The rats were anesthetized and prepped for surgery. The anterolateral aspect of the femoral shaft was exposed through a 3-cm incision. The periosteum and attached muscle was stripped from the bone. A polyacetyl plate (27×4×4 mm) was placed on the anterolateral surface of the femur. The plates were predrilled to accept 0.9-mm diameter threaded Kirschner wires. The bases of these plates were formed to fit the contour of the femoral shaft. Pilot holes were drilled through both cortices of the femur using the plate as a template and threaded Kirschner wire was inserted through the plate and femur. The notches that were 6 mm apart on the plate served as a guide for bone removal. A small oscillating saw was used to create the defect while the tissue was cooled by continuous irrigation in an effort to prevent thermal damage.
Several groups of 10 animals each were inoculated with 1×10^5 CFU of S. aureus and treated with BT alone or in combination with antibiotics 6 hours post-inoculation as described above. The groups were as follows: Bis-EDT gel; MB-11 gel; MB-8-2 gel; Bis-EDT gel & Abx; MB-11 gel & Abx; MB-8-2 gel & Abx; Control (Abx alone).
Animals were euthanized 14 days after surgery and bone and hardware sent for microbiological analysis, the results of which are shown in FIG. 7.

[1] = Uninoculated solubility control plate (drug precipitation in test media); format: physicochemical; settings: uninoculated solubility control plates; BisEDT observation at 32 μg/mL
S. aureus strains = assay: In vitro inhibition from PMMA cement bead vehicle; format: cell-based, Staphylococcus aureus; settings: with and without Tobramicin and Vancomycin
S. epidermidis biofilm = assay: Biofilm prevention concentration (BPC), BisEDT and antibiotics; format: cell-based, Staphylococcus epidermidis; settings: regardless of antibiotic employed
Procedure: S. epidermidis grown in TSB+2% glucose in polystyrene plates for 48 h at 37° C. Gatifloxacin (GF), clindamycin (CM), minocycline (MC), gentamicin (GM), vancomycin (VM), cefazolin (CZ), nafcillin (NC), and rifampicin (RP). […]

resistant E. coli = assay: MIC in Mueller-Hinton II broth, antibiotic + BisEDT; format: cell-based, Escherichia coli; settings: Escherichia coli, read-out: Drug + BE MIC, Chloramphenicol/Ampicillin resistant E. coli; BE 0.33 μg/ml
Description: Chloramphenicol and ampicillin resistant Escherichia coli were made sensitive to these drugs by the addition of subMIC BisEDT (Table 24).
Tetracycline resistant Escherichia coli were made sensitive to doxycycline by the addition of subMIC BisEDT (Table 25).

E. coli = assay: Broth dilution MIC, BT-antibiotic combinations; format: cell-based; settings: Escherichia coli; E. coli Ampicillin/Chloramphenicol resistant; antibiotic alone
Procedure: Materials & Methods. Susceptibility studies were performed by broth dilution in 96-well tissue culture plates (Nalge Nunc International, Denmark) in accordance with NCCLS protocols (National Committee for Clinical Laboratory Standards. (1997). Methods for Dilution Antimicrobial Susceptibility Tests for Bacteria that Grow Aerobically: Approved Standard M7-A2 and Informational Supplement M100-S10. NCCLS, Wayne, Pa., USA).
Briefly, overnight bacterial cultures were used to prepare 0.5 McFarland standard suspensions, which were further diluted 1:50 (˜2×10^6 cfu/mL) in cation-adjusted Mueller-Hinton broth medium (BBL, Cockeysville, Md., USA). […] Cultures were incubated for 24 h at 37° C. and turbidity was assessed by absorption at 630 nm using an ELISA plate reader (Biotek Instruments, Winooski, Vt., USA) according to the manufacturer's recommendations. […] Viable bacterial counts (cfu/mL) were determined by standard plating on nutrient agar.
The checkerboard method was used to assess the activity of antimicrobial combinations. The fractional inhibitory concentration index (FICI) and the fractional bactericidal concentration index (FBCI) were calculated, according to Eliopoulos et al. (Eliopoulos and Moellering, (1996) Antimicrobial combinations. In Antibiotics in Laboratory Medicine (Lorian, V., Ed.), pp. 330-96, Williams and Wilkins, Baltimore, Md., USA). […]

Acinetobacter baumanii = assay: Single-point BisEDT-antibiotic combination FICI; format: cell-based; settings: Abau 2594
[2] = test system: Staphylococcus aureus (MSSA, MRSA, CA-MRSA); assay: microbe, parasite or virus in culture; format: cell-based
Pseudomonas aeruginosa = assay: Single-point BisEDT-antibiotic combination FICI; format: cell-based; settings: PA 1380
[3] = test system: Streptococcus pneumoniae (SP, PRSP); assay: Single-point BisEDT-antibiotic combination FICI; settings: PRSP 5348
Escherichia coli = assay: Single-point BisEDT-antibiotic combination FICI; format: cell-based
Klebsiella pneumoniae = assay: Single-point BisEDT-antibiotic combination FICI; format: cell-based; settings: KP 1231
[4] = test system: Staphylococcus aureus (SA, MRSA); assay: Single-point BisEDT-antibiotic combination FICI; format: cell-based
Bukholderia multivorans = assay: Single-point BisEDT-antibiotic combination FICI; format: cell-based; settings: Bmult 5665
Burkholderia cepacia = assay: Single-point BisEDT-antibiotic combination FICI; format: cell-based; settings: Bcep 1756
Enterococcus faecalis = assay: Single-point BisEDT-antibiotic combination FICI; format: cell-based; settings: E Fc 3121
[5] = test system: Enterococcus faecium (VSEfm, VREfm); assay: microbe, parasite or virus in culture; format: cell-based; settings: vancomycin-resistant Enterococcus faecium (VREfm)
[6] = neutral pH; cited from earlier work

C1C[S][Bi]([S]CC[S][Bi]2[S]CC[S]2)[S]1 [BisEDT, bismuth-1,2-ethanedithiol]
S. aureus infection detected on hardware, effect on Cefazolin activity (S. aureus): did not appear to affect Cefazolin activity | S. aureus infection of injured bone, effect on Cefazolin activity (S. aureus): enhanced | Solubility in MIC test media [1]: trace precipitate | Effect on S. aureus strains in vitro from PMMA cement beads (S. aureus strains): inhibitory effects | Biofilm at 0.1 μg/ml BisEDT (S. epidermidis biofilm): no biofilm was detected

O=C(N[C@H](CO)[C@H](O)c1ccc([N+](=O)[O-])cc1)C(Cl)Cl [CM, chloramphenicol]
MIC (resistant E. coli): 12.7 µg/mL | MIC (E. coli): 220 µg/mL

C[C@@H](O)[C@H]1C(=O)N2C(C(=O)O)=C(SCCN=CN)C[C@H]12 [Imipenem]
FICI, single-point BisEDT-antibiotic combination (Acinetobacter baumanii): 0.81 | MIC90 ([2]; MSSA clinical isolates): 0.03 µg/mL (≈ 0.1 µM) | MIC ([2]; S. aureus 29213, one value on a single run, one dilution below published QC range, read-out: MIC, quality control strain): 0.008 µg/mL (≈ 0.0267 µM) | FICI, single-point BisEDT-antibiotic combination (Pseudomonas aeruginosa): 1.12 | FICI, single-point BisEDT-antibiotic combination [3]: 0.43 | FICI, single-point BisEDT-antibiotic combination (Escherichia coli; EC 102): 1.11 | FICI, single-point BisEDT-antibiotic combination (Escherichia coli; EC 2232): 1.29 | FICI, single-point BisEDT-antibiotic combination (Klebsiella pneumoniae): 1.23 | FICI, single-point BisEDT-antibiotic combination ([4]; MRSA 773): 1.48 | FICI, single-point BisEDT-antibiotic combination ([4]; SA 100): 0.67 | FICI, single-point BisEDT-antibiotic combination (Bukholderia multivorans): 1.23 | FICI, single-point BisEDT-antibiotic combination (Burkholderia cepacia): 0.73 | FICI, single-point BisEDT-antibiotic combination (Enterococcus faecalis): 0.73

CC(=O)NC[C@H]1CN(c2ccc(N3CCOCC3)c(F)c2)C(=O)O1 [Linezolid]
FICI, single-point BisEDT-antibiotic combination [3]: 1.11 | FICI, single-point BisEDT-antibiotic combination ([4]; MRSA 773): 1.23 | FICI, single-point BisEDT-antibiotic combination ([4]; SA 100): 1.23 | MIC90 [5]: 2 µg/mL (≈ 5.93 µM) | FICI, single-point BisEDT-antibiotic combination (Enterococcus faecalis): 1.23

Zinc pyrithione
Solubility in water [6]: 8 ppm
